Source: patent publication US8247211B2, “Glycopeptide antibiotics” (American Cyanamid Company, priority 2001, dated 2012)
Converted amounts (≈) assume the structure as drawn.

What was measured:
[1] = tested on: Streptococcus sp.; experiment: In vitro antibacterial evaluation: minimum inhibitory concentration (MIC), broth dilution method; format: cell-based
How it was run: (§1)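 First, organisms are seeded at 5×10^5 CFU/mL into Muller-Hinton II […]. Next, antibiotic is applied across 64-0.06 μg/mL by broth dilution (NCCLS M7-A2). Finally, the lowest inhibitory concentration is recorded as MIC.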

[2] = tested on: Staphylococcus aureus-SMITH (GC 4543); experiment: Acute lethal infection in mice (ED50); format: in vivo; conditions: female CD-1 mice, intraperitoneal challenge, intravenous dose 30 min. after infection, 7 day survival ratios
How it was run: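 Lethal systemic infection model: female CD-1 mice, 20 ± 1-2 g, intraperitoneal challenge. Single intravenous treatment 30 min after infection; 7-day survival, pooled from 3 tests, gives ED50.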

[3] = Anatomic pathology (heart and kidney histopathology) in mice; format: in vivo, CD-1 mice; conditions: 20 mg/kg intravenously daily for 9 days, microscopic histopathology on day 10
Method: 20-day-old CD-1 mice were divided into a vehicle control group (5 mice) and a treatment group (5 mice). Samples of glycopeptide antibiotics were administered at 20 mg/kg intravenously daily for 9 days.
Samples of tissues from necropsied mice were formalin-fixed, paraffin-embedded, sectioned, stained with hematoxylin and eosin, and examined microscopically. Histopathologic findings were recorded. These findings were subjectively graded on a scale corresponding to slight, mild, moderate, marked and severe as compared to untreated controls.

[4] = tested on: Escherichia coli; experiment: In vitro antibacterial evaluation: minimum inhibitory concentration (MIC), broth dilution method; format: cell-based; conditions: strain GC 4560
How it was run: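 An MIC is reported for each organism as the least concentration giving inhibition, using broth dilution over 64-0.06 μg/mL with a 5×10^5 CFU/mL inoculum.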

[5] = tested on: Enterococcus sp.; experiment: as above; format: cell-based; conditions: for MIC Enterococcus avium (GC 4558): strain GC 4558
How it was run: as §1

[6] = tested on: Staphylococcus sp.; experiment: as above; format: cell-based; conditions: broth dilution, 18 hours at 35° C.
How it was run: as §1

[7] = Streptococcus pneumoniae (GC 1894), broth dilution, 18 hours at 35° C.
[8] = Streptococcus pneumoniae (GC 4565), broth dilution, 18 hours at 35° C.

Structure (SMILES)	MIC Streptococcus pneumoniae (GC 1894) [1, 7] [µg/mL]	MIC Streptococcus pneumoniae (GC 1894) ([1]; strain GC 1894) [µg/mL]	median effective dose (ED50), Staphylococcus aureus-SMITH (GC 4543) [2]	Anatomical Pathology (Day 10), Heart [3]	Anatomical Pathology (Day 10), Kidney [3]	MIC Escherichia coli (GC 4560) [4] [µg/mL]	also measured
CC(c1ccccc1)C1NC(=O)CNC(=O)C(CO)NC(=O)C(C(O)C2CN(Cc3ccccc3)C(=N)N2C2OC(CO)C(O)C(O)C2O)NC(=O)C(C(O)C2CNC(=N)N2)NC(=O)C(Cc2ccc(OC3OC(CO)C(OC4OC(CO)C(O)C(O)C4O)C(O)C3O)cc2)NC1=O (stereo not drawn) [Example 59, Cyclo[glycyl-β-methylphenylalanyl-O-(4-O-hexopyranosylhexopyranosyl)tyrosyl-(2-iminoimidazolidin-4-yl)seryl-3-[1-benzyl-3-hexopyranosyl-2-iminoimidazolidin-4-yl]serylseryl]]	64 (≈ 46.2 µM)	64 (≈ 46.2 µM)	>8	0	0		
CC(c1ccccc1)C1NC(=O)CNC(=O)C(CO)NC(=O)C(C(O)C2CN(Cc3ccc(C(C)(C)C)cc3)C(=N)N2C2OC(CO)C(O)C(O)C2O)NC(=O)C(C(O)C2CNC(=N)N2)NC(=O)C(Cc2ccc(OC3OC(CO)C(OC4OC(CO)C(O)C(O)C4O)C(O)C3O)cc2)NC1=O (stereo not drawn) [Example 60, Cyclo[glycyl-β-methylphenylalanyl-O-(4-O-hexopyranosylhexopyranosyl)tyrosyl-(2-iminoimidazolidin-4-yl)seryl-3-[1-(4-tert-butylbenzyl)-3-hexopyranosyl-2-iminoimidazolidin-4-yl]-serylseryl]]	64 (≈ 44.4 µM)	64 (≈ 44.4 µM)	>8	0	0	16 (≈ 11.1 µM)	
CC(c1ccccc1)C1NC(=O)CNC(=O)C(CO)NC(=O)C(C(O)C2CN(CCCCCCCCCCCCO)C(=N)N2C2OC(CO)C(O)C(O)C2O)NC(=O)C(C(O)C2CNC(=N)N2)NC(=O)C(Cc2ccc(OC3OC(CO)C(OC4OC(CO)C(O)C(O)C4O)C(O)C3O)cc2)NC1=O (stereo not drawn) [Example 61]	64 (≈ 43.3 µM)	64 (≈ 43.3 µM)	>8	0	+++	8 (≈ 5.41 µM)	MIC Enterococcus avium (GC 4558) [5]: 64 µg/mL (≈ 43.3 µM); MIC Streptococcus pneumoniae (GC 4565) [1, 8]: 64 µg/mL (≈ 43.3 µM); MIC Streptococcus pneumoniae (GC 4565) ([1]; strain GC 4565): 64 µg/mL (≈ 43.3 µM)
CN=C1N(C)CC(C(O)C2NC(=O)C(Cc3ccc(OC4OC(CO)C(OC5OC(CO)C(O)C(O)C5O)C(O)C4O)cc3)NC(=O)C(C(C)c3ccccc3)NC(=O)CNC(=O)C(CO)NC(=O)C(C(O)C3CN(C)C(=NC)N3C3OC(CO)C(O)C(O)C3O)NC2=O)N1C (stereo not drawn) [Example 64, Cyclo[glycyl-β-methylphenylalanyl-O-(4-O-hexopyranosylhexopyranosyl)tyrosyl-3-(1,3-dimethyl-2-(methylimino)imidazolidin-4-yl)seryl-3-[3-hexopyranosyl-1-methyl-2-(methylimino)imidazolidin-4-yl]-serylseryl]]			>8	0	0		
CC(c1ccccc1)C1NC(=O)CNC(=O)C(CO)NC(=O)C(C(O)C2CN(Cc3ccccc3-c3ccccc3)C(=N)N2C2OC(CO)C(O)C(O)C2O)NC(=O)C(C(O)C2CNC(=N)N2)NC(=O)C(Cc2ccc(OC3OC(CO)C(OC4OC(CO)C(O)C(O)C4O)C(O)C3O)cc2)NC1=O (stereo not drawn) [Example 65]			>8	0	+++	32 (≈ 21.9 µM)	
CC(c1ccccc1)C1NC(=O)CNC(=O)C(CO)NC(=O)C(C(O)C2CN(Cc3ccc(-c4ccccc4)cc3)C(=N)N2C2OC(CO)C(O)C(O)C2O)NC(=O)C(C(O)C2CNC(=N)N2)NC(=O)C(Cc2ccc(OC3OC(CO)C(OC4OC(CO)C(O)C(O)C4O)C(O)C3O)cc2)NC1=O (stereo not drawn) [Example 66a]			>4	0	++	8 (≈ 5.47 µM)	
CC(c1ccccc1)C1NC(=O)CNC(=O)C(CO)NC(=O)C(C(O)C2CN(Cc3ccc4ccccc4c3)C(=N)N2C2OC(CO)C(O)C(O)C2O)NC(=O)C(C(O)C2CNC(=N)N2)NC(=O)C(Cc2ccc(OC3OC(CO)C(OC4OC(CO)C(O)C(O)C4O)C(O)C3O)cc2)NC1=O (stereo not drawn) [Example 67]	64 (≈ 44.6 µM)	64 (≈ 44.6 µM)	>8	0	0	32 (≈ 22.3 µM)	MIC Enterococcus avium (GC 4558) [5]: 64 µg/mL (≈ 44.6 µM)
CC(c1ccccc1)C1NC(=O)CNC(=O)C(CO)NC(=O)C(C(O)C2CN(Cc3ccc(C(=O)O)cc3)C(=N)N2C2OC(CO)C(O)C(O)C2O)NC(=O)C(C(O)C2CNC(=N)N2)NC(=O)C(Cc2ccc(OC3OC(CO)C(OC4OC(CO)C(O)C(O)C4O)C(O)C3O)cc2)NC1=O (stereo not drawn) [Example 69, Cyclo[glycyl-β-methylphenylalanyl-O-(4-O-hexopyranosylhexopyranosyl)tyrosyl-3-(2-iminoimidazolidin-4-yl)seryl-3-[1-(4-carboxybenzyl)-2-imino-3-hexopyranosylimidazolidin-4-yl]-serylseryl]]			>8	0	0		
CCCCCCCN1CC(C(O)C2NC(=O)C(C(O)C3CNC(=N)N3)NC(=O)C(Cc3ccc(OC4OC(CO)C(OC5OC(CO)C(O)C(O)C5O)C(O)C4O)cc3)NC(=O)C(C(C)c3ccccc3)NC(=O)CNC(=O)C(CO)NC2=O)N(C2OC(CO)C(O)C(O)C2O)C1=N (stereo not drawn) [Example 71, Cyclo[glycyl-β-methylphenylalanyl-O-(4-O-hexopyranosylhexopyranosyl]tyrosyl-3-(2-iminoimidazolidin-4-yl)seryl-3-[1-heptyl-3-hexopyranosyl-2-iminoimidazolidin-4-yl]serylseryl]]			>8	0	0		
CC(c1ccccc1)C1NC(=O)CNC(=O)C(CO)NC(=O)C(C(O)C2CN(CCCCCCCCCCC(=O)O)C(=N)N2C2OC(CO)C(O)C(O)C2O)NC(=O)C(C(O)C2CNC(=N)N2)NC(=O)C(Cc2ccc(OC3OC(CO)C(OC4OC(CO)C(O)C(O)C4O)C(O)C3O)cc2)NC1=O (stereo not drawn) [Example 72, Cyclo[glycyl-β-methylphenylalanyl-O-(4-O-hexopyranosylhexopyranosyl)tyrosyl-3-(2-iminoimidazolidin-4-yl)seryl-3-[1-(10-carboxydecyl)-3-hexopyranosyl-2-iminoimidazolidin-4-yl]serylseryl]]	16 (≈ 10.8 µM)	16 (≈ 10.8 µM)	>8	0	++	32 (≈ 21.6 µM)	MIC Enterococcus faecalis (GC 4553) ([5]; strain GC 4553): 64 µg/mL (≈ 43.3 µM); MIC Enterococcus avium (GC 4558) [5]: 64 µg/mL (≈ 43.3 µM); MIC Streptococcus pneumoniae (ATCC 6301) ([1]; Streptococcus pneumoniae (ATCC 6301), broth dilution, 18 hours at 35° C.): 64 µg/mL (≈ 43.3 µM); MIC Streptococcus pneumoniae (GC 4565) [1, 8]: 64 µg/mL (≈ 43.3 µM); MIC Streptococcus pyogenes (GC 4563) ([1]; Streptococcus pyogenes (GC 4563), broth dilution, 18 hours at 35° C.): 64 µg/mL (≈ 43.3 µM); MIC Streptococcus pneumoniae (ATCC 6301) ([1]; strain ATCC 6301): 64 µg/mL (≈ 43.3 µM); MIC Streptococcus pyogenes (GC 4563) ([1]; strain GC 4563): 64 µg/mL (≈ 43.3 µM); MIC Streptococcus pneumoniae (GC 4565) ([1]; strain GC 4565): 64 µg/mL (≈ 43.3 µM)
CN=C1N(C)CC(CC2NC(=O)C(Cc3ccc(OC4OC(CO)C(OC5OC(CO)C(O)C(O)C5O)C(O)C4O)cc3)NC(=O)C(C(C)c3ccccc3)NC(=O)CNC(=O)C(CO)NC(=O)C(CC3CN(C)C(=NC)N3C3OC(CO)C(O)C(O)C3O)NC2=O)N1C (stereo not drawn) [Example 74]			>8	0	0		
CN=C1N(C)CC(C(O)C2NC(=O)C(Cc3ccc(OC4OC(CO)C(OC5OC6COC7(OC6C(O)C5O)C5CC6CC(C5)CC7C6)C(O)C4O)cc3)NC(=O)C(C(C)c3ccccc3)NC(=O)CNC(=O)C(CO)NC(=O)C(C(O)C3CN(C)C(=NC)N3C3OC(CO)C(O)C(O)C3O)NC2=O)N1C (stereo not drawn) [Example 81]			>8	0	0		MIC Coagulase Negative Staphylococcus (GC 4547) [6]: >128 µg/mL; MIC Coagulase Negative Staphylococcus (GC 4548) [6]: >128 µg/mL; MIC Coagulase Negative Staphylococcus (GC 4549) [6]: >128 µg/mL; MIC Coagulase Negative Staphylococcus (GC 4551) [6]: >128 µg/mL; MIC Coagulase Negative Staphylococcus (GC 6257) [6]: >128 µg/mL; MIC Staphylococcus aureus (ATCC 29213) [6]: >128 µg/mL; MIC Staphylococcus aureus (GC 1131) [6]: >128 µg/mL; MIC Staphylococcus aureus (GC 3051) [6]: >128 µg/mL; MIC Staphylococcus aureus (GC 3053) [6]: >128 µg/mL; MIC Staphylococcus aureus (GC 4541) [6]: >128 µg/mL; MIC Staphylococcus aureus (GC 4542) [6]: >128 µg/mL; MIC Staphylococcus aureus (GC 4544) [6]: >128 µg/mL; MIC Staphylococcus aureus (GC 4545) [6]: >128 µg/mL; MIC Staphylococcus aureus SMITH (GC 4543) [6]: >128 µg/mL
